“Also recorded” adds a separate entry of the source. Like-named read-outs stand apart in the source and are kept apart here.
Assays:
nitrosamine localization = test: Examples 4 and 5: intraperitoneal imidazole, whole-body autoradiography after [14C] NNN; type: in vivo, C57BL/6J mouse
Protocol: An adult male C57BL/6J mouse was injected intraperitoneally with 0.02 ml/g body weight of a solution of imidazole in water. The imidazole solution concentration was such that 0.05 g of imidazole was delivered per kg of body weight. […] See Example 1.
Example 4 was duplicated except that the adult mouse was injected intraperitoneally with 0.02 ml/g body weight of a solution of imidazole in water, wherein the solution concentration was such that 0.25 g of imidazole was delivered per kg of body weight.

[1] = system: nitrosamines such as NNN and metabolites thereof in mammalian tissues; test: Inhibition of selective localization of nitrosamines (general statements); type: in vivo; details: qualitative statement
[2] = cited from earlier work
[3] = system: formation of nitrosamines on epithelial membranes; details: cited from earlier work
rodents = details: cited from earlier work; for carcinogenicity: rat, in vivo
tissue macromolecules = details: cited from earlier work; for metabolic activation: rats, hamsters and monkeys; for binding of metabolites to macromolecules: tracheobronchial and nasal mucosa, kidney, liver, sublingual and submaxillary glands, esophagus, melanin of the eye
rats = details: cited from earlier work
bronchial epithelium [4] = test: Examples 2 and 3: cyclohexanol vapor inhalation, whole-body autoradiography after [14C] NNN; type: in vivo, C57BL/6J mouse; details: inhaled 5 min
Protocol: The mouse was kept in the closed beaker for about five minutes as the bottom of the beaker was maintained at 50° C. in a water bath. […] Handbook of Chemistry and Physics (1979) at D-203 to D-217.
One hour later, the mouse was anesthetized lightly by ether and frozen by immersion in dry ice/hexane. […] Control experiments were conducted for comparison purposes and radioactivity was detected in the respiratory epithelium in the controls.
Example 2 was duplicated, except that the mouse was kept in the closed beaker for five minutes as the bottom of the beaker was maintained at 26° C. in a water bath. […] After injection as in Example 2, the mouse was processed in the same manner as in Example 2.

human exposure [5] = test: OSHA time weighted average (TWA) exposure limit; details: TWA 200 mg/m^3
Text: On the other hand, the quantity of alcohol transferred and inhaled by the smoker must be at a safe amount and less than the maximum volumetric concentrations permitted for each alcohol by any applicable government regulation, such as in the United States those of the U.S. Occupational Safety and Health Administration (OSHA) Time Weighted Average (TWA). Other helpful guidelines are published by the Flavoring Extract Manufacturers' Association (Generally Regarded As Safe list), and the Hunter Committee from Great Britain. If a substance has not been evaluated in the literature, the toxicity of that substance (alcohol) should be evaluated before use. Compounds or alcohols herein are analyzed individually and the toxicity of a mixture of compounds is assumed to be the toxicity of the most toxic individual substance in the compound. It is expected that 1-1000 micrograms (and more particularly approximately 800 micrograms) of the blocking alcohol(s) would be needed on the rag tobacco for a cigarette containing 400-1200 milligrams (and more particularly approximately 800 milligrams) of tobacco. Yet another way of defining the quantity of alcohol is its concentration in air, which should be about 0.1% to 0.001% (see Example 3, supra). […]

human exposure [6] = details: cited from earlier work
bronchial epithelium [7] = test: Example 1: whole-body autoradiography, inhibition of localization of [14C] NNN radioactivity in bronchial epithelium; type: in vivo, C57BL/6J mice; details: for dose relation of reduction in photometric density: oral alcohols
Protocol: (§1) One hour later, the mice were anesthetized lightly with ether and frozen by immersion in dry ice/hexane. Twenty u-thick whole-body sagittal sections of the frozen mice were taken onto Scotch tape and were then processed for whole-body autoradiography by known methods. See W. Waddell et al, Drug Fate and Metabolism: Methods and Techniques, E.R. Garrett and J. L. Hirtz, Eds. […] Photometric density in areas of the developed autoradiographs was measured with an ADG Instruments photometer and a photocell with an aperture of three mm lying on the easel of a photographic enlarger. The X-ray film was placed in the enlarger and raised to produce a magnification of thirty-five times on the easel.
(§2) NNN. […] (Twenty minutes is the average time it takes for alcohols introduced by oral intubation into mice to reach the peak blood level.)
(§3) The number within each bar thereof represents the dose in g/kg of that alcohol which was administered orally twenty minutes before the [^14 C] NNN was given intravenously. The mice were frozen one hour after receiving the [^14 C] NNN. The means for each mouse were from fifteen measurements on random areas of that site (five absorbancies on each of three autoradiographs) after setting blood in each on zero. The control value is the mean from six mice; the n-butanol at 1 g/kg is from two mice; the other means are from one mouse.

[8] = system: periportal and central areas of the liver; details: oral intubation 20 min before [14C] NNN
Protocol: as §1, §2, §3

salivary duct epithelium = details: oral intubation 20 min before [14C] NNN
Protocol: as §1, §2, §3

adult human = details: cited from earlier work
tumor development = details: cited from earlier work

c1c[nH]cn1 [imidazole]
nitrosamine delocalization relative to control mouse (nitrosamine localization; 0.05 g/kg intraperitoneal, 20 min before [14C] NNN): Significant nitrosamine delocalization
nitrosamine delocalization relative to control mouse (nitrosamine localization; 0.25 g/kg intraperitoneal): significant delocalization of nitrosamine
inhibition of nitrosamine localization [1]: found to delocalize nitrosamines

CC(C)(O)C(C)(C)O [Pinacol]
Vapor Pressure ([2]; 44° C.): 1 mmHg

O=C1O[C@H]([C@@H](O)CO)C(O)=C1O [Vitamin C]
formation of nitrosamines on epithelial membranes [3]: prevent the formation of nitrosamines

CN(CCCC(=O)c1cccnc1)N=O [NNK, 4(methylnitrosamino)-1-(3-pyridyl)-1-butanone]
carcinogenicity (rodents): powerful environmental carcinogens
metabolic activation (tissue macromolecules): most likely starts with a-carbon hydroxylation
binding of metabolites to macromolecules (tissue macromolecules): bind to macromolecules

CC1=C(/C=C/C(C)=C/C=C/C(C)=C/CO)C(C)(C)CCC1 [retinol, reference compound]
Acute Oral LD50 (rats; rat, in vivo, po): 2000 mg/kg

CCC(CC)CO [2-Ethyl butyl alcohol]
Vapor Pressure ([2]; 20° C.): 0.9 mmHg

OC1CCCCC1 [Cyclohexanol]
radioactivity in bronchial epithelium (bronchial epithelium [4]; 26° C., 0.001% in air): No radioactivity was detected
radioactivity in bronchial epithelium (bronchial epithelium [4]; 50° C., 0.01% in air): No radioactivity was detected
concentration in cigarette smoke at TWA limit of OSHA (human exposure [5]): 63 micrograms/cigarette
Toxicity (TWA OSHA) (human exposure [6]; 8 h work day, 40 h work week): 200 mg/m^3
atmosphere concentration considered safe by OSHA (human exposure [6]; eight continuous hours): two hundred
Acute Oral LD50 (rats; rats, oral): 2060 mg/kg
Vapor Pressure ([2]; 21° C.): 1 mmHg

CCCCCCCCCO [n-Nonyl alcohol]
Vapor Pressure ([2]; 59.5° C.): 1 mmHg

CCCCCCCCCCCCO [Lauryl alcohol]
Vapor Pressure ([2]; 91° C.): 1 mmHg

CCCCO [n-butanol]
dose relation of reduction in photometric density (bronchial epithelium [7]): dose related
Acute Oral LD50 (rats; rats, oral): 790 mg/kg

CC1CCC(C(C)C)C(O)C1 (stereo not drawn) [Menthol, reference compound]
inhibition of nitrosamine localization [1]: does not have the nitrosamine blocking effect; also recorded: does not inhibit nitrosamine localization
Acute Oral LD50 (rats; rat, in vivo, po): 3180 mg/kg
Vapor Pressure ([2]; 56° C.): 1 mmHg

O=NN1CCCC1c1cccnc1 (stereo not drawn) [NNN, Nnitrosonornicotine]
tumor induction (rodents; F-344 rats, drinking water): esophageal tumors have been induced
sites of tumor formation (rodents; nasal cavity, salivary duct, esophagus, bronchial epithelium and liver): induces tumor formation at five sites
carcinogenicity (rodents): powerful environmental carcinogens
carcinogenesis (rodents; rodents, olfactory epithelium, lung, salivary glands): induce carcinogenesis in the olfactory epithelium, lung, salivary glands
metabolism (tissue macromolecules; F-344 rat esophagus vs other tissues): preferentially catalyzes hydroxylation at the a-carbon of NNN adjacent to the pyridine ring
metabolic activation (tissue macromolecules): most likely starts with a-carbon hydroxylation
binding of metabolites to macromolecules (tissue macromolecules): bind to macromolecules
retention of radioactivity vs sites of tumor formation (tissue macromolecules; whole-body autoradiography, adult male C57BL/6J mice, [14C] NNN): striking correlation

C[S+](C)[O-] [dimethylsulfoxide (DMSO), dimethylsulfoxide]
inhibition of nitrosamine localization [1]: found to delocalize nitrosamines

CCCCCCCCCCO [n-Decyl alcohol]
Vapor Pressure ([2]; 69.5° C.): 1 mmHg

CCO [ethanol]
dose relation of reduction in photometric density (bronchial epithelium [7]): dose related
reduction of localization of radioactivity in bronchial epithelium (bronchial epithelium [7]; oral intubation 20 min before [14C] NNN, ethanol 1 and 5 g/kg, butanols 0.2 and 1 g/kg): reduced
reduction of localization of radioactivity in periportal and central areas of the liver [8]: reduced
reduction of localization of radioactivity in salivary duct epithelium (salivary duct epithelium): reduced
Acute Oral LD50 (rats; rats, oral): 14000 mg/kg

c1cn[nH]c1 [pyrazole]
inhibition of nitrosamine localization [1]: found to delocalize nitrosamines

CC(C)CC(C)O (stereo not drawn) [4-methyl-2-pentanol]
Acute Oral LD50 (rats; rats, oral): 2600 mg/kg

CC(O)CCO (stereo not drawn) [1,3 Butanediol]
Vapor Pressure ([2]; 20° C.): .06 mmHg

CC(C)(C)O [t-butanol]
localization of [14C] NNN in bronchial epithelium (bronchial epithelium [7]; at the high dosage (1 g/kg), oral): almost completely abolished
inhibition ranking in bronchial epithelium (FIG. 1) (bronchial epithelium [7]; comparison of ethanol, n-butanol, t-butanol): greatest inhibition
dose relation of reduction in photometric density (bronchial epithelium [7]): dose related

CCCCCCC(C)O (stereo not drawn) [Capryl alcohol]
Vapor Pressure ([2]; 32.8° C.): 1 mmHg

OCC=Cc1ccccc1 [Cinnamyl alcohol]
Vapor Pressure ([2]; 72.6° C.): 1 mmHg

CCCCCO [n-amyl, n-amyl alcohol]
Acute Oral LD50 (rats; rat, in vivo, po): 3030 mg/kg

S=C=NCc1ccccc1 [benzylisothiocyanate]
inhibition of nitrosamine localization [1]: found to delocalize nitrosamines

CCCCCCCCCCCCCCCCCCO [Stearyl alcohol]
Vapor Pressure ([2]; 50° C.): 1 mmHg

CCCCCCCCCCCCCCCCO [Cetyl alcohol]
Acute Oral LD50 (rats; rats, oral): 20000 mg/kg
Vapor Pressure ([2]; 122.7° C.): 1 mmHg

CN1CCCC1c1cccnc1 (stereo not drawn) [nicotine]
estimated acutely fatal oral dose (adult human): one

Dipropylene glycol monomethyl
Vapor Pressure ([2]; 20° C.): .3 mmHg

Vitamin E
formation of nitrosamines on epithelial membranes [3]: prevent the formation of nitrosamines

Methyl cyclohexanol
Vapor Pressure ([2]; 30° C.): 1.5 mmHg

Vitamin A
tumor development (tumor development): inhibit tumor development
